Experimental findings from patent US9345247B2, “Azaindole carboxylic acid amides and azaindole thiocarboxylic acid amides for use as insecticides and acaricides” (BAYER CROPSCIENCE AG, priority 2012, dated 2016) are described below.

The test system of series [1] is greenhouse red spider mite (Tetranychus urticae). The series is described as follows: Tetranychus urticae spray test, OP-resistant (TETRUR). In kind it is in vivo. The settings on record: for efficacy: 100 g/ha, spray, after 6 days; for Emax at 100 g/ha: 100 g of ai/ha. On the procedure: (§1) To produce a suitable active compound formulation, 1 part by weight of active compound is mixed with the stated amounts of solvent and emulsifier, and the concentrate is diluted with emulsifier-containing water to the desired concentration.
Discs of bean leaves (Phaseolus vulgaris) infested by all stages of the greenhouse red spider mite (Tetranychus urticae) are sprayed with an active compound formulation of the desired concentration.
After 6 days, the efficacy in % is determined 100% means that all the spider mites have been killed; 0% means that none of the spider mites have been killed. […]

Series [2] in a line: log P by HPLC on reversed-phase column (C18), EEC directive 79/831 Annex V.A8. Type of series: physicochemical. The settings on record: HPLC, acidic range pH 2.7, 43° C. On the procedure: a) The determination of the W by LC-MS in the acidic range is effected at pH 2.7, acetonitrile (contains 0.1% formic acid) and water as eluents; linear gradient from 10% acetonitrile to 95% acetonitrile, instrument: Agilent 1100 LC-System, Agilent MSD System, HTS PAL. The log P values reported in the tables and Preparation Examples above were determined in accordance with EEC directive 79/831 Annex V.A8 by HPLC (High Performance Liquid Chromatography) using a reversed-phase column (C18). Temperature 43° C. The calibration is effected with unbranched alkan-2-ones (having 3 to 16 carbon atoms), for which the log P values are known.

Series [3] has as its system larvae of the mustard beetle (Phaedon cochleariae). Kind of series: Phaedon cochleariae spray test (PHAECO). Type of series: in vivo. On the procedure:
Phaedon cochleariae—Spray Test (PHAECO)
(§2) To produce a suitable preparation of active compound, 1 part by weight of active compound is mixed with the stated amounts of solvent and emulsifier, and the concentrate is diluted with emulsifier-containing water to the desired concentration.
Discs of Chinese cabbage leaves (Brassica pekinensis) are sprayed with an active compound formulation of the desired concentration and, after drying, populated with larvae of the mustard beetle (Phaedon cochleariae).
After 7 days, the efficacy in % is determined. 100% means that all the beetle larvae have been killed; 0% means that no beetle larvae have been killed.
After the stated period of time, the effect in % is determined 100% means that all the beetle larvae have been killed; 0% means that no beetle larvae have been killed.

The test system of series [4] is Boophilus microplus. Kind of series: Boophilus microplus test (BOOPMI injection). Type of series: in vivo. Conditions: 20 μg/animal, after 7 days. On the procedure:
Boophilus microplus Test (BOOPMI Injection) [table] To produce a suitable active compound formulation, 10 mg of active compound are mixed with 0.5 ml of solvent and the concentrate is diluted with solvent to the desired concentration. The active compound solution is injected into the abdomen (Boophilus microplus), and the animals are transferred into dishes and stored in a climate-controlled room. After 7 days, the efficacy in % is determined. The activity is assessed by laying of fertile eggs. 100% means that none of the ticks has laid any fertile eggs.

In series [5] the test system is Lucilia cuprina larvae. The series is described as follows: Lucilia cuprina test (LUCICU). In kind it is in vivo. Conditions: 100 ppm, after 2 days. On the procedure: Lucilia cuprina Test (LUCICU) [table] To produce a suitable active compound formulation, 10 mg of active compound are mixed with 0.5 ml of dimethyl sulfoxide, and the concentrate is diluted with water to the desired concentration. Vessels containing horse meat treated with the active compound formulation of the desired concentration are populated with about 20 Lucilia cuprina larvae. After 2 days, the kill in % is determined 100% means that all the larvae have been killed; 0% means that none of the larvae have been killed.

The subject of series [6] is adult Musca domestica. Kind of series: Musca domestica test (MUSCDO). Type of series: in vivo. The settings on record: 100 ppm, after 2 days. On the procedure: Musca domestica Test (MUSCDO) [table] To produce a suitable active compound formulation, 10 mg of active compound are mixed with 0.5 ml of dimethyl sulfoxide, and the concentrate is diluted with water to the desired concentration. Vessels containing a sponge treated with the active compound formulation of the desired concentration are populated with adult Musca domestica. After 2 days, the kill in % is determined 100% means that all flies have been killed; 0% means that no flies have been killed.

Series [7] concerns Ctenocephalides felis. Kind of series: Ctenocephalides felis; oral (CTECFE). In kind it is in vivo. Conditions: 100 ppm, oral in cattle blood, after 2 days. On the procedure:
Ctenocephalides felis; Oral (CTECFE)
To produce a suitable active compound formulation, 10 mg of active compound are mixed with 0.5 ml of dimethyl sulphoxide. A portion of the concentrate is diluted with citrated cattle blood, and the desired concentration is prepared.
About 20 unfed adult fleas (Ctenocephalides felis) are placed into a chamber which is closed at the top and bottom with gauze. A metal cylinder whose bottom end is closed with parafilm is placed onto the chamber. The cylinder contains the blood/active compound preparation, which can be imbibed by the fleas through the parafilm membrane.
After 2 days, the kill in % is determined 100% means that all fleas have been killed; 0% means that none of the fleas have been killed.

Series [8] has as its system caterpillars of the armyworm (Spodoptera frugiperda). Kind of series: Spodoptera frugiperda spray test (SPODFR). Conditions: for efficacy: spray, after 7 days. Type of series: in vivo. On the procedure:
Spodoptera frugiperda—Spray Test (SPODFR)
as §1
Leaf discs of maize (Zea mays) are sprayed with an active compound formulation of the desired concentration and, after drying, populated with caterpillars of the armyworm (Spodoptera frugiperda).
After 7 days, the efficacy in % is determined. 100% means that all the caterpillars have been killed; 0% means that no caterpillars have been killed.
as §2
Leaf discs of maize (Zea mays) are sprayed with an active compound preparation of the desired concentration and, after drying, populated with caterpillars of the armyworm (Spodoptera frugiperda).
After the stated period of time, the effect in % is determined. 100% means that all the caterpillars have been killed; 0% means that no caterpillars have been killed.

The mark [9] stands for this setting: Tetranychus urticae, 144 h, TETRUR, 6 d, read-out: % Efficacy dat.

With `CCn1c(C(=O)NC(c2cccc(C(F)(F)F)c2)C(F)(F)F)cc2cc(C(=O)NC3CCC3)c(C)nc21` (centres unmarked) [Compound 5], the efficacy in series [1] came out at 90%; in series [3] (100 g/ha, spray, after 7 days), 100%. For the same molecule, the log p in series [2] amounted to 3.89.
As to `CCn1c(C(=O)NC(c2cccc(C(F)(F)F)c2)C(F)(F)F)cc2cc(C(=O)NCc3ccccn3)c(C)nc21` (centres unmarked) [Compound 7], the efficacy in series [1] is on record as 90%. For the same molecule, the log p in series [2] stood at 2.99.
As for `CCn1c(C(=O)NC(c2ccc(F)c(Cl)c2)C(F)(F)F)cc2cc(C(=O)NC3CC3)c(Cl)nc21` (centres unmarked) [Compound 16], the efficacy in series [1] was found to be 90%; in series [3] (100 g/ha, spray, after 7 days) it was 100%. The “efficacy (laying of fertile eggs)” value in series [4] amounted to 100%. For the same molecule, in series [2], the log p was determined as 3.61. Besides, the “efficacy (kill)” value in series [5], in series [6] and in series [7] was 100% throughout.
Consider `CCn1c(C(=O)NC(c2ccc(F)c(Cl)c2)C(F)(F)F)cc2cc(C(=O)NC(C)C)c(Cl)nc21` (centres unmarked) [Compound 17], for which the efficacy in series [1] is 100%. Besides, the log p in series [2] is 3.88.
On to `C#CCn1c(C(=O)NC(c2cccc(C(F)(F)F)c2)C(F)(F)F)cc2cc(C(=O)NC3CC3)c(Cl)nc21` (centres unmarked) [Compound 23], for which the efficacy was 90% in series [1]; 100% in series [8] (100 g/ha); 100% in series [3] (100 g/ha, spray, after 7 days). Moreover, the “efficacy (laying of fertile eggs)” value in series [4] is 100%. Besides, the log p in series [2] came to 3.45. Further, in series [5], the “efficacy (kill)” value amounted to 100%.
As for `C#CCn1c(C(=O)NC(c2cccc(C(F)(F)F)c2)C(F)(F)F)cc2cc(C(=O)NC3CCC3)c(Cl)nc21` (centres unmarked) [Compound 25], the efficacy in series [1] is on record as 90%; in series [3] (100 g/ha, spray, after 7 days) it was 100%. For the same molecule, the log p in series [2] came to 3.79.
On to `CCn1c(C(=O)NC(c2cc(Cl)cc(Cl)c2)C(F)(F)F)cc2cc(C(=O)NC3CC3)c(Cl)nc21` (centres unmarked) [Compound 28], for which, in series [4], the “efficacy (laying of fertile eggs)” value was 100%. Moreover, the efficacy in series [8] (100 g/ha) is given as 100%; in series [3] (100 g/ha, spray, after 7 days) it was 100%. Moreover, the “efficacy (kill)” value was 100% in series [5], 100% in series [6] and 95% in series [7].
For the molecule `CCn1c(C(=O)NC(c2ccc(F)c(C(F)(F)F)c2)C(F)(F)F)cc2cc(C(=O)NC3CC3)c(Cl)nc21` (centres unmarked) [Compound 29], the efficacy came to 90% in series [1]; 100% in series [8] (100 g/ha); 100% in series [3] (100 g/ha, spray, after 7 days). The “efficacy (laying of fertile eggs)” value in series [4] is 100%. The results for the “efficacy (kill)” value in series [5], in series [6] and in series [7] were 100%, 100% and 95%, respectively.
On to `CCn1c(C(=O)NC(c2cccc(C(F)(F)F)c2)C(F)(F)F)cc2cc(C(=O)NC3COC3)c(Cl)nc21` (centres unmarked) [Compound 39], for which the efficacy is 90% in series [1] and 100% in series [3] (100 g/ha, spray, after 7 days). The log p in series [2] came out at 3.28.
Consider `CCn1c(C(=O)NC(c2cccc(C(F)(F)F)c2)C(F)(F)F)cc2cc(C(=O)NCC(F)(F)F)c(Cl)nc21` (centres unmarked) [Compound 41], for which the “efficacy (laying of fertile eggs)” value in series [4] stood at 100%. For the same molecule, the log p in series [2] was determined as 4.08. Further, the efficacy is given as 100% in series [8] (100 g/ha) and 100% in series [3] (100 g/ha, spray, after 7 days). Moreover, the “efficacy (kill)” value in series [5], in series [6] and in series [7] was 100% each time.
For the molecule `CCn1c(C(=O)NC(c2cccc(C(F)(F)F)c2)C(F)(F)F)cc2cc(C(=O)NCC#N)c(Cl)nc21` (centres unmarked) [Compound 42], the efficacy in series [1] was determined as 90%. Besides, the Emax at 100 g/ha in series [1] (setting [9]) stood at 90%. Besides, the “efficacy (laying of fertile eggs)” value in series [4] was 100%. For the same molecule, the chromatographic logP in series [2] (reversed-phase HPLC column (C18), read-out: log p) was 3.5. For the same molecule, the “efficacy (kill)” value in series [5], in series [6] and in series [7] was 100% each time. In series [3] (Phaedon cochleariae, 168 h, 100 g/ha, spray, after 7 days, read-out: efficacy), the pest or weed control at 100 g/ha stood at 100%.
In the case of `CCn1c(C(=O)NC(c2ccc(F)c(Cl)c2)C(F)(F)F)cc2cc(C(=O)NCc3ccccn3)c(Cl)nc21` (centres unmarked) [Compound 58], the efficacy is reported as 100% in series [1] and 100% in series [3] (100 g/ha, spray, after 7 days). Besides, in series [4], the “efficacy (laying of fertile eggs)” value came to 100%. Further, in series [2], the log p was found to be 3.17. Also, the “efficacy (kill)” value in series [5] and in series [7] was 100% throughout.
In the case of `CCn1c(C(=O)NC(c2cc(Cl)c(F)c(Cl)c2)C(F)(F)F)cc2cc(C(=O)NCc3ccccn3)c(Cl)nc21` (centres unmarked) [Compound 60], the efficacy turned out to be 90% in series [1] and 100% in series [3] (100 g/ha, spray, after 7 days). In addition, in series [4], the “efficacy (laying of fertile eggs)” value is listed as 100%. The same molecule gave a log p in series [2] of 3.67. For the same molecule, the “efficacy (kill)” value in series [5] was 100%; in series [7], 95%.
With `CCn1c(C(=O)NC(c2ccc(F)c(C(F)(F)F)c2)C(F)(F)F)cc2cc(C(=O)NC3(C(N)=S)CC3)c(Cl)nc21` (centres unmarked) [Compound 66], the efficacy in series [1] is 100%; in series [8] (100 g/ha), 100%; in series [3] (100 g/ha, spray, after 7 days), 100%. Moreover, the log p in series [2] stood at 3.64.
Consider `CCn1c(C(=O)NC(c2cccc(C(F)(F)F)c2)C(F)(F)F)cc2cc(C(=O)NC3(C#N)CC3)c(C(F)(F)F)nc21` (centres unmarked) [Compound 74], for which the log p in series [2] was determined as 3.93. Also, the efficacy in series [8] (100 g/ha) was 100%; in series [8] (500 g/ha), 100%; in series [3] (100 g/ha, spray, after 7 days), 100%; in series [3] (500 g/ha, spray, after 7 days) it was 100%.
Turning to `CCn1c(C(=O)NC(c2ccc(F)c(C(F)(F)F)c2)C(F)(F)F)cc2cc(C(=O)NC3CC3)c(C)nc21` (centres unmarked) [Compound 76], the efficacy in series [1] is listed as 100%; in series [8] (100 g/ha), 100%; in series [3] (100 g/ha, spray, after 7 days), 100%. Besides, the log p in series [2] stood at 3.67.
As to `Cn1c(C(=O)NC(c2cccc(C(F)(F)F)c2)C(F)(F)F)cc2cc(C(=O)NC3CC3)c(Cl)cc21` (centres unmarked) [reference compound], the Emax at 4 g/ha in series [1] (Tetranychus urticae, 144 h, TETRUR, 4 g of ai/ha, 6 d, read-out: % Efficacy dat) amounted to 0%; in series [8] (Spodoptera frugiperda, 168 h, SPODFR, 4 g of ai/ha, 7 d, read-out: % Efficacy dat) it was 17%. For the same molecule, in series [3] (Phaedon cochleariae, 168 h, PHAECO, 0.8 g of ai/ha, 7 d, read-out: % Efficacy dat), the percent efficacy (larval mortality) at 0.8 g/ha was 0%.
Turning to `CCn1c(C(=O)NC(c2cccc(C(F)(F)F)c2)C(F)(F)F)cc2cc(C(=O)NCC#N)c(Cl)cc21` (centres unmarked) [reference compound], the Emax at 100 g/ha in series [1] (setting [9]) stood at 0%.
